#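 Step 1: Grow cells in 96-well plates. Step 2: Expose to compound for 48 hours at 5 concentrations. Step 3: Interpolate endpoints linearly; if unreached, use highest concentration. GI50 = concentration required for 50% inhibition of growth. Definition used: TGI = concentration required for complete inhibition of growth.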
# Tests used:
# Assay in all cases: NCI anticancer screen, dose series, 48 h
# NCI-H460 lung = tested on: NCI-H460 lung
# CAKI-1 renal = tested on: CAKI-1 renal
# KM12 colon = tested on: KM12 colon
# RXF 393 renal = tested on: RXF 393 renal
# SK-MEL-2 melanoma = tested on: SK-MEL-2 melanoma
# K-562 leukemia = tested on: K-562 leukemia
# A498 renal = tested on: A498 renal
# SNB-75 CNS = tested on: SNB-75 CNS
# HOP-62 NSCLC = tested on: HOP-62 NSCLC
# MDA-MB-435 = tested on: MDA-MB-435
Compound,GI50 (NCI-H460 lung) [µM],TGI (NCI-H460 lung) [µM],GI50 (CAKI-1 renal) [µM],TGI (CAKI-1 renal) [µM],GI50 (KM12 colon) [µM],TGI (KM12 colon) [µM],GI50 (RXF 393 renal) [µM],TGI (RXF 393 renal) [µM],GI50 (SK-MEL-2 melanoma) [µM],TGI (SK-MEL-2 melanoma) [µM],GI50 (K-562 leukemia) [µM],TGI (K-562 leukemia) [µM],GI50 (A498 renal) [µM],TGI (A498 renal) [µM],GI50 (SNB-75 CNS) [µM],TGI (SNB-75 CNS) [µM],TGI (HOP-62 NSCLC) [µM],GI50 (HOP-62 NSCLC) [µM],GI50 (MDA-MB-435) [µM],TGI (MDA-MB-435) [µM]
CC(=O)[CH-]C(=O)c1ccccc1.CC(=O)[CH-]C(=O)c1ccccc1.[CH2-]CCC.[CH2-]CCC.[Sn+4],2.11,4.62,0.322,1.22,1.41,2.76,0.258,0.784,0.555,1.77,0.331,10.3,1.66,3.74,0.352,1.18,–,–,–,–
CC1(C)CC(=O)c2c(oc3cc(O)c(O)cc23)C1,–,85,–,76.6,–,77.4,–,> 100,–,76.8,–,> 100,–,> 100,–,> 100,> 100,–,–,–
C/C(=N/NC(=O)CC(=O)N(C(=O)c1ccccc1Cl)c1ccc(C)cc1)c1cc2ccccc2oc1=O,–,> 100,–,> 100,–,> 100,–,> 100,–,–,–,> 100,–,> 100,–,> 100,> 100,–,–,–
CC1=C(C(=O)CC(=O)C(=O)NC2C3CC4CC(C3)CC2C4)Sc2ccccc2N1 (stereo unspecified),–,> 100,–,> 100,–,> 100,–,> 100,–,> 100,–,> 100,–,> 100,–,> 100,> 100,–,–,–
O=C(/C=C/c1cn(-c2ccccc2)nc1-c1ccc([N+](=O)[O-])cc1)c1ccc(Cl)cc1,–,–,> 21.3,> 100,–,–,1.92,5.19,5.03,23,0.0883,2.73,4.99,> 100,1.65,4.84,51.1,14.9,–,–
Fc1cc(-c2nnc3n2N=C(c2ccc(Cl)cc2Cl)CS3)c(Cl)cc1Cl,37.3,> 100,35.9,> 100,41.9,> 100,51,> 100,> 100,> 100,47.5,> 100,–,–,> 100,> 100,> 100,44.2,24.5,75.9
c1cnc2[nH]cc(-c3csc(-c4cn(CCCN5CCCCC5)c5ccccc45)n3)c2c1,–,–,–,–,1.61,3.13,–,–,2.04,4.24,1.74,3.52,1.83,3.38,1.21,2.84,3.02,1.47,1.67,3.09
COc1ccc2[nH]c3c(=O)[nH]ncc3c2c1,–,> 100,–,–,–,> 100,–,–,–,> 100,–,> 100,–,> 100,–,57.4,> 100,–,–,–
COc1ccc2c(c1)nc1n2C(c2ccc(F)cc2)SC1 (stereo unspecified),16.1,67.7,26.2,74.5,23.3,70.2,82.9,> 100,20.4,65,42.3,> 100,–,–,25.6,> 100,> 100,79.7,21.8,59.5
Cc1ccccc1NC(=O)C(=O)CC(=O)c1ccc([N+](=O)[O-])cc1,–,> 100,–,> 100,–,> 100,–,> 100,–,> 100,–,–,–,–,–,> 100,> 100,–,–,–
CC(=O)OCCC(O[Si](c1ccccc1)(c1ccccc1)C(C)(C)C)C(C)(C)O (stereo unspecified),–,> 100,–,–,–,55,–,36.6,–,> 100,–,> 100,–,> 100,–,> 100,–,–,–,–
CCOC(=O)C[C@@]12CCCNC1(C)CCc1ccccc12 (stereo partly specified),–,> 100,–,–,–,> 100,–,–,–,> 100,–,> 100,–,–,–,–,> 100,–,–,–
COC(=O)C1(F)C(=O)NC(=O)NC1OC (stereo unspecified),–,> 100,–,> 100,–,> 100,–,–,–,> 100,–,> 100,–,> 100,–,> 100,> 100,–,–,–
CC(C)(C)[Si](C)(C)OCC1OC(n2cnc3c(N)ncnc32)C(O)C1O (stereo unspecified),–,> 100,–,> 100,–,> 100,–,> 100,–,> 100,–,> 100,–,–,–,> 100,> 100,–,–,> 100
O=C1C(c2ccccc2)=C(c2ccccc2)[C@H](c2ccccc2)[C@]1(Cc1nnn(-c2ccc([N+](=O)[O-])cc2)c1N1CCOCC1)c1ccccc1,–,> 37.5,–,> 37.5,–,–,–,> 37.5,–,–,–,> 37.5,–,> 37.5,–,> 37.5,> 37.5,–,–,–
CC(C)(C)c1cc(CCC(=O)Nc2ccc(Cl)cc2Cl)nc(N)n1,–,> 100,–,> 100,–,> 100,–,> 100,–,> 100,–,> 100,–,–,–,–,> 100,–,–,–
COc1ccc(-c2nc3c(c(=O)n2C(C)=O)C(c2ccc(Cl)cc2)c2sc4c(Cl)cccc4c2O3)cc1 (stereo unspecified),0.365,1.38,0.49,4.16,0.349,1.91,0.235,0.675,0.374,1.69,0.26,2.7,–,–,0.738,9.98,1.96,0.275,–,–
CCCCCCCCCC(=O)Oc1cccc2onc(C)c12,–,> 100,–,> 100,–,> 100,–,> 100,–,> 100,–,> 100,–,–,–,> 100,> 100,–,–,–
NC(=O)c1c[se]c(C2OC(COP(=O)(O)CP(=O)(O)OCC3OC(n4cnc5c(N)ncnc54)C(O)C3O)C(O)C2O)n1 (stereo unspecified),–,> 100,–,> 100,–,> 100,–,> 100,–,> 100,–,> 100,–,> 100,–,> 100,> 100,–,–,–
O=[N+]([O-])C1C2C=CC(C2)[C@H]1c1ccc(Cl)cc1Cl (stereo partly specified),–,> 100,–,–,–,> 100,–,74.1,–,> 100,–,> 100,–,> 100,–,> 100,–,–,–,–

Compound,GI50 (NCI-H460 lung) [µM],TGI (NCI-H460 lung) [µM],GI50 (CAKI-1 renal) [µM],TGI (CAKI-1 renal) [µM],GI50 (KM12 colon) [µM],TGI (KM12 colon) [µM],GI50 (RXF 393 renal) [µM],TGI (RXF 393 renal) [µM],GI50 (SK-MEL-2 melanoma) [µM],TGI (SK-MEL-2 melanoma) [µM],GI50 (K-562 leukemia) [µM],TGI (K-562 leukemia) [µM],GI50 (A498 renal) [µM],TGI (A498 renal) [µM],GI50 (SNB-75 CNS) [µM],TGI (SNB-75 CNS) [µM],TGI (HOP-62 NSCLC) [µM],GI50 (HOP-62 NSCLC) [µM],GI50 (MDA-MB-435) [µM],TGI (MDA-MB-435) [µM]
C/C(=N\n1c(N)c(C#N)c(-c2ccc(Cl)cc2)c(C#N)c1=O)c1ccncc1,22.4,82.5,16.7,> 100,–,–,–,–,27.8,> 100,> 100,> 100,–,–,6.11,26.6,48.8,16.9,–,–
COc1ccc(NC(=O)c2sc3nc4c(cc3c2N)CCCC4)cc1,0.543,19.8,–,–,0.612,82.9,0.452,4.72,0.369,4.69,0.309,> 100,0.237,1.73,0.342,11.6,> 100,0.752,–,–
COc1ccc(C(=O)C[C@]2(O)C(=O)Nc3c(Cl)ccc(Cl)c32)cc1,0.389,> 53.5,0.492,> 100,0.39,> 40.1,–,–,0.627,> 100,0.258,> 100,0.295,1.52,0.199,0.972,> 100,1.06,0.128,0.396
O=C(O)[C@@H]1CCCC[C@@H]1C(=O)N(C1CCCCC1)C1CCCCC1,–,> 100,–,> 100,–,> 100,–,–,–,> 100,–,> 100,–,> 100,–,> 100,> 100,–,–,–
CC1(C)OC(COCCOCCCCCO)C(COCCOCCCCCO)O1 (stereo unspecified),–,> 100,–,> 100,–,> 100,–,> 100,–,> 100,–,> 100,–,> 100,–,> 100,> 100,–,–,–
CC12OC(C(=O)C13CCC3)C1C(=O)c3ccccc3C(=O)C12 (stereo unspecified),> 100,> 100,32.7,> 100,32.4,> 100,–,–,> 100,> 100,58.1,> 100,–,–,> 100,> 100,> 100,> 100,> 100,> 100
COC(=O)[C@H](Cc1ccccc1)NC(=O)c1csc([C@@H](C[C@H](C(C)C)N(C)C(=O)[C@@H](NC(=O)[C@H]2CCCN2C)C2CC2)OC(C)=O)n1,0.397,> 33.3,0.793,> 33.3,0.45,> 33.3,–,–,0.728,> 33.3,0.113,> 33.3,1.53,15.2,0.131,> 33.3,> 33.3,0.831,0.027,0.191
COc1cc2cccc(N=Cc3c(Br)ccc(OC)c3OC(C)C)c2cc1OC,–,> 100,–,70.2,–,> 100,–,–,–,> 100,–,92.9,–,> 100,–,89.3,> 100,–,–,–
C1=C2CNCC3=Cc4ccc5ccccc5c4OC23Oc2c1ccc1ccccc21,3.27,13.1,3.29,20.7,3.83,16.3,1.79,6.16,5.47,22.8,2.95,21.2,3.87,17,2.32,11.5,16.7,4.47,–,–
Cc1nnc(N=Nc2c(O)[nH]c3ccccc23)n1N,–,> 100,–,> 100,–,> 100,–,> 100,–,> 100,–,> 100,–,> 100,–,> 100,> 100,–,–,–
NS(=O)(=O)c1ccc(NC(=O)c2cccn3c(=O)c4ccccc4nc23)cc1,–,> 100,–,> 100,–,> 100,–,> 100,–,–,–,> 100,–,> 100,–,> 100,> 100,–,–,–
C[N+](C)=c1nc(N2CCOCC2)ss1,–,> 100,–,> 100,–,> 100,–,> 100,–,> 100,–,> 100,–,> 100,–,–,> 100,–,–,–
COC(=O)c1cc2c3c(ccc2[nH]1)N(C(=O)c1cc2c4c(ccc2[nH]1)N(C(=O)c1cc2c5c(ccc2[nH]1)N(C(N)=O)CC5)CC4)CC3,–,> 100,–,8.95,–,> 100,–,12.5,–,> 24.4,–,> 100,–,4.4,–,–,7.83,–,–,–
c1ccc(NC[Si]23OCCN(CCO2)CCO3)cc1,–,> 100,–,> 100,–,> 100,–,> 100,–,> 100,–,> 100,–,> 100,–,> 100,–,–,–,–
COc1nc2c(c(O)c(C)c(=O)n2OC2OC(COC(C)=O)C(OC(C)=O)C(OC(C)=O)C2OC(C)=O)c(=O)n1C (stereo unspecified),–,> 100,–,–,–,> 100,–,> 100,–,> 100,–,> 100,–,–,–,> 100,> 100,–,–,–
COc1ccc(CC2=NCCc3cc(OC)c(OC)cc32)cc1Br,–,> 100,–,59.3,–,84.4,–,90.6,–,> 100,–,93.2,–,95.1,–,–,> 100,–,–,–
C[C@@]12CCCC(=O)N1[C@@H](CO)C(c1ccccc1)O2 (stereo partly specified),–,> 100,–,> 100,–,> 100,–,> 100,–,> 100,–,> 100,–,> 100,–,> 100,> 100,–,–,–
C=CC1=CC(C)C[C@]1(O)C(=O)OC (stereo partly specified),> 100,–,> 100,–,> 100,–,> 100,–,> 100,–,> 100,–,> 100,–,> 100,–,–,> 100,–,–
NC(N)=N/N=C/c1c(-c2ccc(Cl)c([N+](=O)[O-])c2)nc2n1CCS2,11.6,> 100,13.5,28,12.4,25.7,–,–,–,–,3.96,16.6,18.3,39.5,16,37.9,9.44,2.83,9.63,22.2

# Reference: PubChem BioAssay (NCI)
